Data on five molecules can be found in publication PMC11882969 (Nature Communications, 2025).

The target of data set [1] is hCB2 (Homo sapiens, UniProt P34972). Nature of the data set: Tango β-arrestin-2 recruitment, HTLA cells, CB2R. The data set is classed as cell-based. More on the design: expressed in transfected cells; host or cells: HEK293 cells stably expressing human CB2R (Laboratory of Ken Mackie). The note with it: hCB2; for Emax: HTLA, read-out: Tango ß-arrestin recruitment Emax; for EC50: read-out: Tango ß-arrestin recruitment EC50.
Description: The Tango β-arrestin-2 recruitment assays were performed as described[83]. In brief, HTLA cells (a gift from the laboratory of R. Axel) were transiently transfected with human CB1R or CB2R Tango DNA construct overnight in DMEM supplemented with 10 % FBS, 100 µg ml−1 streptomycin and 100 U ml−1 penicillin. The transfected cells were then plated into poly-L-lysine-coated 384-well white clear-bottom cell culture plates in DMEM containing 1% dialysed FBS at a density of 10,000–15,000 cells per well. After incubation for 6 h, the plates were added with drug solutions prepared in DMEM containing 1% dialysed FBS for overnight incubation. On the day of assay, medium and drug solutions were removed and 20 µl per well of BrightGlo reagent (Promega) was added. The plates were further incubated for 20 min at room temperature and counted using the Wallac TriLux Microbeta counter (PerkinElmer). The results were analysed using GraphPad Prism 9. Each experiment was performed in triplicate and functional IC50 values were determined from the mean of three independent experiments.

The target in data set [2] is hCB1 (Homo sapiens, UniProt P21554). Nature of the data set: GloSensor cAMP accumulation assay. The data set is classed as cell-based.
Description: Briefly, hCB1-expressing cells were transfected with the GloSensor cAMP DNA construct overnight. […] The results were analyzed using GraphPad Prism 9. Each experiment was performed in triplicate and functional IC50 values were determined from the mean of three independent experiments.
Data set [3] is described as follows: Dynamic light scattering, colloidal aggregation. It is filed as physicochemical. The note with it: Log[compound, replicates, sheet FigS2b. As for the experimental part:
Samples were prepared as 8-point half-log dilutions in filtered 50 mM KPi buffer, pH 7.0 with final DMSO concentration at 1% (v/v). Colloidal particle formation was measured using DynaPro Plate Reader II (Wyatt Technologies). All compounds were screened in triplicate.

Data set [4] addresses AmpC β-lactamase (Escherichia coli, UniProt P00811). It is filed as biochemical. The note with it: for AMPC activity (DMSO = 100), replicate means: Rep 1-3 mean, sheet FigureS2c; for AmpC inhibition: Log[7019], sheet FigS2d. As for the experimental part:
Enzyme inhibition assays to test for colloidal inhibition were performed at room temperature using CLARIOstar Plate Reader (BMG Labtech). Samples were prepared in 50 mM KPi buffer, pH 7.0 with final DMSO concentration at 1% (v/v). Compounds were incubated with 2 nM AmpC β-lactamase (AmpC) or Malate dehydrogenase (MDH) for 5 min. AmpC reactions were initiated by the addition of 50 μM CENTA chromogenic substrate (219475, Calbiochem). […] MDH reactions were initiated by the addition of 200 μM nicotinamide adenine dinucleotide (NADH) (54839, Sigma Aldrich) and 200 μM oxaloacetic acid (324427, Sigma Aldrich). The change in absorbance was monitored at 340 nm for 60 sec. Initial rates were divided by the DMSO control rate to determine % enzyme activity. […]. Data was analyzed using GraphPad Prism 9.1.

Data set [5] deals with Malate dehydrogenase. Nature of the data set: Enzyme inhibition counter-screen, MDH. It is filed as biochemical. The note with it: for MDH activity (DMSO = 100), replicate means: Rep 1-3 mean, sheet FigureS2c; for MDH inhibition: Log[7019], sheet FigS2d. As for the experimental part: Enzyme inhibition assays to test for colloidal inhibition were performed at room temperature using CLARIOstar Plate Reader (BMG Labtech). Samples were prepared in 50 mM KPi buffer, pH 7.0 with final DMSO concentration at 1% (v/v). Compounds were incubated with 2 nM AmpC β-lactamase (AmpC) or Malate dehydrogenase (MDH) for 5 min. AmpC reactions were initiated by the addition of 50 μM CENTA chromogenic substrate (219475, Calbiochem). […] MDH reactions were initiated by the addition of 200 μM nicotinamide adenine dinucleotide (NADH) (54839, Sigma Aldrich) and 200 μM oxaloacetic acid (324427, Sigma Aldrich). The change in absorbance was monitored at 340 nm for 60 sec. Initial rates were divided by the DMSO control rate to determine % enzyme activity. Each compound was screened at 100μM in triplicate for three independent experiments, if enzyme inhibition greater than 30% was observed, 8-point half-log concentrations were performed in triplicate for three independent experiments. Data was analyzed using GraphPad Prism 9.1.

Where “and” joins values, the source holds several entries; their conditions need not be identical. Equal entries are not always repeated. Where two headings read alike, the source gives them in different places. Marks after values point to notes of the source that are not given here.

Sequence of hCB2 (P34972 whole entry): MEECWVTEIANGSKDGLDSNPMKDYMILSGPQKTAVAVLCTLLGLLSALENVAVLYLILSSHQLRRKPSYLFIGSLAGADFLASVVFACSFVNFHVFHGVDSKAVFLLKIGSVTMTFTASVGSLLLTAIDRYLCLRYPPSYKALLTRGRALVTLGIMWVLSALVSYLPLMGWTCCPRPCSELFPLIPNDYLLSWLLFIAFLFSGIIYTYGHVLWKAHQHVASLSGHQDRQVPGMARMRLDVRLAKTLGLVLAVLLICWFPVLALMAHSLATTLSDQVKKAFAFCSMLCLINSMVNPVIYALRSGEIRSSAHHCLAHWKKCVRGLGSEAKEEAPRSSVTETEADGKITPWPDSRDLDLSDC
Sequence of AmpC β-lactamase (P00811 20-377): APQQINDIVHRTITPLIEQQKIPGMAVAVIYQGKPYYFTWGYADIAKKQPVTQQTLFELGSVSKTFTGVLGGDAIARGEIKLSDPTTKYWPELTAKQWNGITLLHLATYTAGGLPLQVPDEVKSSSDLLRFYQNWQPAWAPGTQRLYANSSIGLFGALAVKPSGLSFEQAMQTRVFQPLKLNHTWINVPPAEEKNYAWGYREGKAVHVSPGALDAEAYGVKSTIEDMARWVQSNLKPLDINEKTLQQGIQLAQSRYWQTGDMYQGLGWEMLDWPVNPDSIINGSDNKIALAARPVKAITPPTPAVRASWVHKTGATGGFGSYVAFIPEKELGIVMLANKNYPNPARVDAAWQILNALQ
Sequence of hCB1 (P21554 whole entry): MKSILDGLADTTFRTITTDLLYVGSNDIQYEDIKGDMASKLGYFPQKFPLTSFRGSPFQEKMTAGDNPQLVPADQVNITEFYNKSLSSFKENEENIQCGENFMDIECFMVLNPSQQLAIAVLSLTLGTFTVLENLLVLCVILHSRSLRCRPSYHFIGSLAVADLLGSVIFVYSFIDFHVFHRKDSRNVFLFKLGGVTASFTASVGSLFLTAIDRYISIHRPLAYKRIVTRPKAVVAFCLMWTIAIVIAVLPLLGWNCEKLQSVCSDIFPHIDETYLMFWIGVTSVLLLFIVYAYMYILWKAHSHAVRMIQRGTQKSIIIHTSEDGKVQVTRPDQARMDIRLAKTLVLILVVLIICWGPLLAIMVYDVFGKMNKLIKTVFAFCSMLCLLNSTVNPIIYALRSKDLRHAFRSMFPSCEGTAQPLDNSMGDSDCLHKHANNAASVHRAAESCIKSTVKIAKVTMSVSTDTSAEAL

Turning to `COC(=O)C(NC(=O)c1cc(C)n(-c2cccc(C(F)(F)F)c2)n1)c1cccs1` (stereo not shown) [‘60154], in data set [1], the maximal response (Emax) turned out to be 21%, the “Tango ß-arrestin recruitment pEC50” value was 5.5 [5.4 – 5.6] and the concentration giving a half-maximal response (EC50) was determined as 3340 nM. In data set [2], a half-maximal effect (EC50) was put at 25.2 nM, the Emax amounted to 82% and the “Glosensor cAMP pEC50” value was 7.6 [7.4 – 7.8].
In the case of `COC(=O)C(NC(=O)c1cc(C)n(-c2cccc(F)c2)n1)c1cccs1` (stereo not shown) [‘51486], the DLS scattering intensity in data set [3] (uM] 0) was 759657 and 686584 and 965322; in data set [3] (uM] 0.5), 1020197 and 797976 and 985220; in data set [3] (uM] 1), 599581 and 807564 and 813072; in data set [3] (uM] 1.49996), 1081636 and 666504 and 646696; in data set [3] (uM] 2), 2657372 and 4460546 and 3577303; in data set [3] (uM] -0.500011) it was 732851 and 712729 and 950123. Moreover, the DLS scattering intensity was 747604 and 1271629 and 624256 in data set [3] (uM] -1); 774618 and 1013605 and 787428 in data set [3] (uM] -1.5). In addition, the “AMPC activity (DMSO = 100), replicate means” value in data set [4] is 133.645 and 104.886 and 117.294. Further, the “MDH activity (DMSO = 100), replicate means” value in data set [5] is 74.7583 and 87.0115 and 96.3724.
Turning to `Cn1nc(-c2nnc(C(C)(C)Oc3ccc(Cl)cc3)o2)c2ccccc2c1=O` [‘0450], the DLS scattering intensity in data set [3] (uM] 0) was 721249 and 1482870 and 678793; in data set [3] (uM] 0.5), 820738 and 723783 and 889231; in data set [3] (uM] 1) it was 2818066 and 935392 and 954008; in data set [3] (uM] 1.49996), 37596765 and 31006318 and 24739178; in data set [3] (uM] 2) it was 93917555 and 151664189 and 85385693; in data set [3] (uM] -0.500011), 759174 and 1269323 and 983915. In addition, the DLS scattering intensity in data set [3] (uM] -1) was 623247 and 1064137 and 868483; in data set [3] (uM] -1.5), 703949 and 596678 and 546381. Further, the “AMPC activity (DMSO = 100), replicate means” value in data set [4] is 142.819 and 64.3814 and 173.064. For the same molecule, the “MDH activity (DMSO = 100), replicate means” value in data set [5] is 124.427 and 98.8422 and 101.682.
As for `COC(=O)C(C)(NC(=O)c1cc(C)n(-c2cccc(C(F)(F)F)c2)n1)c1cccs1` (stereo not shown) [‘4042], in data set [1], the Emax came out at 28%, the “Tango ß-arrestin recruitment pEC50” value is 7.5 [7.2 – 7.7] and the EC50 was 33.9 nM. Besides, in data set [2], the maximal effect (Emax) amounted to 91% and the “Glosensor cAMP pEC50” value is 10.4 [10.3 – 10.5].
As for `Cc1nc(CC2CC2)oc1-c1nc(Cc2cc3c(cc2Br)OCO3)no1` [‘7019], the DLS scattering intensity in data set [3] (uM] 0) is 2130000 and 1970000 and 1380000; in data set [3] (uM] 1), 1540000 and 2950000 and 1930000; in data set [3] (uM] 1.49996) it was 46500000 and 37100000 and 47300000; in data set [3] (uM] 2), 1480000* and 177000000 and 144000000; in data set [3] (uM] -0.500011), 1270000 and 1420000 and 400669; in data set [3] (uM] -1) it was 2530000 and 1820000 and 2230000. Besides, the AmpC inhibition in data set [4] (uM 0) is on record as 0; in data set [4] (uM 1), 0; in data set [4] (uM 1.49996), 27.6; in data set [4] (uM 2), 55.1; in data set [4] (uM -0.500011), 0; in data set [4] (uM -1) it was 0. The MDH inhibition in data set [5] (uM 0) was determined as 0; in data set [5] (uM 1), 0; in data set [5] (uM 1.49996), 13.7; in data set [5] (uM 2), 16.9; in data set [5] (uM -0.500011) it was 0; in data set [5] (uM -1), 0.
